Laboratory results published in paper PMC7669869, “AdipoR1/AdipoR2 dual agonist recovers nonalcoholic steatohepatitis and related fibrosis via endoplasmic reticulum-mitochondria axis” (Nature Communications, 2020).
Non-standard residues stand in square brackets, D forms with d. Residues, ends and D or L forms follow the SMILES beside them. Nva = CCC[C@H](N)C(=O)O

Legend:
AdipoR1 = biological target: T1, AdipoR1 (Homo sapiens, UniProt Q96A54); assay: HTRF binding, AdipoR1 overexpression HEK293 cells; details: in words
T1 construct: His; host or cells: HEK293
T1 sequence (Q96A54 1-375): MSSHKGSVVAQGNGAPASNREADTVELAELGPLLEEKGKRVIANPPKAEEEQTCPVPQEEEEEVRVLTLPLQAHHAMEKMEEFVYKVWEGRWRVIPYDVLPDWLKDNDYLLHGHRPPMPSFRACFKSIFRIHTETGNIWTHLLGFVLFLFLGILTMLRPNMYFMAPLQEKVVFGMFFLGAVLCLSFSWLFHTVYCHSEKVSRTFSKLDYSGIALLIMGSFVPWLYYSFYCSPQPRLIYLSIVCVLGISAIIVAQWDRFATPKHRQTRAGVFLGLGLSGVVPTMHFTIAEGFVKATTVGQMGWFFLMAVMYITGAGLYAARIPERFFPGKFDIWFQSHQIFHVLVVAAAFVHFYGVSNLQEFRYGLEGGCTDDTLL
Method: The expression plasmid of AdipoR1 and AdipoR2 were synthesized and codon optimized by Genescript (Nanjing, China) for their expression in HEK293 cell line. The concentration of FITC-JT003 was 0, 0.1, 0.25, 0.5, 1, 2.5 or 5 μM respectively. Unlabeled peptide JT003 was used as the control to measure the non-specific signal. 10E4 AdipoR1 and AdipoR2 overexpression cells, anti-His-Tb (ThermoFisher Scientific, USA) and JT003-FITC were added into a 384-well plate, with a total volume of 25μl. The mixtures were incubated at room temperature for 30 min in the dark. Fluorescent values at 520 nm and 620 nm were measured for Kd calculation.

[1] = test system: liver protein expression of HFD induced NASH mice; assay: HFD mice: liver western blot; assay type: in vivo, mouse; details: JT003 500 μg kg−1, in words
Method: The NASH model was conducted with feeding a HFD for 16 weeks combine with a MCD diet (Methionine/Choline Deficient Diet, Medicience, China) in the last 4 weeks. Mice administered a MCS diet (Methionine/Choline Sufficient Diet, Medicience, China) serves as control group. NAFLD or NASH mice treated with JT003 for 4 weeks were used to evaluate the pharmacological effects (n = 6; 500 μg kg^−1; daily intraperitoneal injection). Food and water were provided ad libitum. The body weight of mice was examined every 3 days. The diet was renewed every 7 days. JT003 was diluted in PBS.
Total protein was isolated from cells or liver samples using RIPA lysis buffer (50.0 mM Tris-HCl (pH = 8.0), 150.0 mM NaCl, 0.02% NaN3, 0.1% SDS, 1% NP-40, 0.5% deoxysodium cholate, 1 mM EDTA, […]). The protein concentration was quantified with BCA kit (Pierce, ThermoFisher Scientific, USA). Thirty micrograms protein were separated by 10 or 12% sodium dodecyl sulfate-polyacrylamide gel electrophoresis depending on the band of target protein, then transferred onto equilibrated polyvinylidene difluoride membrane (PVDF, Immobilon®-PSQ transfer membranes, Merck Millipore, Germany). Membranes were incubated with primary antibodies overnight at 4 °C. Specific antibodies were listed in Supplementary Table 3. After incubation with the secondary antibody, proteins were detected by enhanced chemiluminescence (Glarity^TM Western ECL Substrate, Bio-Rad, USA) and the signals were recorded and quantified with Tanon-Image Software (Shanghai, China). Reference antibody GAPDH were used for data normalization.

[2] = test system: liver gene expression of CCl4 induced liver fibrosis mice; assay: CCl4 mice: liver RNAseq gene expression analysis; assay type: in vivo, mouse; details: CCl4 + JT003 group
Method: Male mice liver fibrosis was induced by intraperitoneal injection of 20% CCl4 (Sigma, USA) diluted in corn oil (Aladdin, China) every 3 days for 6 weeks (n = 6; 5 ml kg^−1 body weight). Mice injected with equivalent volume of corn oil serves as control group (n = 6). Liver fibrosis mice treated with JT003 for 3 weeks were used to evaluated the pharmacological effects (n = 6; 500 μg kg^−1; daily intraperitoneal injection).
The positive area of all stained liver slices was quantified by ImageJ (https://imagej.nih.gov/ij/). All data in this study were shown as the mean ± SEM (Standard Error). Student’s two-tailed t test was used to compare the mean of two groups of samples. All statistical analyses were performed with GraphPad Prism software (https://www.graphpad.com/). Significance was considered when p < 0.05. In RNAseq gene expression analysis, false discovery rate <0.01, q value <0.001. The confidence level was 95%.

CCC[C@H](NC(=O)[C@@H]1CCCN1)C(=O)N[C@@H](CC(C)C)C(=O)N[C@@H](Cc1ccc(O)cc1)C(=O)N[C@@H](Cc1ccc(O)cc1)C(=O)N[C@@H](Cc1ccccc1)C(=O)N[C@@H](C)C(N)=O [JT003] (H-P[Nva]LYYFA-NH2)
Kd value for AdipoR1 compared to JT006 and ADP355 (AdipoR1): significantly lower Kd value
PI3K and Akt phosphorylation in liver tissue [1]: increased
AMPK and PPARα signaling (western blotting) ([1]; liver): activated apparently
expression of downstream factor PPARγ ([1]; liver): inhibited
phosphorylation of PERK and its downstream eIF2α and JNK ([1]; liver): decreased notably
Akr1c18 liver RNAseq expression ([2]; Figure 6c): 0.1038
Bco1 liver RNAseq expression ([2]; Figure 6c): 0.5514
Brca1 liver RNAseq expression ([2]; Figure 6c): -0.5686
C3ar1 liver RNAseq expression ([2]; Figure 6c): -0.04576
C5ar1 liver RNAseq expression ([2]; Figure 6c): -0.1308
Ccl9 liver RNAseq expression ([2]; Figure 6c): 1.215
Cxcl1 liver RNAseq expression ([2]; Figure 6c): 1.2887
Fbn1 liver RNAseq expression ([2]; Figure 6c): -0.3979
Fbn2 liver RNAseq expression ([2]; Figure 6c): -1.301
Nupr1 liver RNAseq expression ([2]; Figure 6c): 0.5866
Ptges liver RNAseq expression ([2]; Figure 6c): -0.4949
Rdh11 liver RNAseq expression ([2]; Figure 6c): 0.8089
Robo1 liver RNAseq expression ([2]; Figure 6c): -0.03152
Xcr1 liver RNAseq expression ([2]; Figure 6c): -0.1135
Alg8 liver RNAseq expression ([2]; Figure 7c): 0.5944
Anxa5 liver RNAseq expression ([2]; Figure 7c): 1.645
Atp2b2 liver RNAseq expression ([2]; Figure 7c): -0.4202
Atp7b liver RNAseq expression ([2]; Figure 7c): 0.2148
Ces3b liver RNAseq expression ([2]; Figure 7c): 2.066
Creb3l2 liver RNAseq expression ([2]; Figure 7c): 0.1072
Dhrs9 liver RNAseq expression ([2]; Figure 7c): -0.6021
Elovl3 liver RNAseq expression ([2]; Figure 7c): 0.433
Fitm1 liver RNAseq expression ([2]; Figure 7c): -0.3372
Fmo2 liver RNAseq expression ([2]; Figure 7c): 0.8831
Fndc5 liver RNAseq expression ([2]; Figure 7c): -0.7212
Grik5 liver RNAseq expression ([2]; Figure 7c): 0.5888
Mia2 liver RNAseq expression ([2]; Figure 7c): 0.7875
Myo5a liver RNAseq expression ([2]; Figure 7c): -0.7959
Nat8f5 liver RNAseq expression ([2]; Figure 7c): 0.6064
Nsdhl liver RNAseq expression ([2]; Figure 7c): 0.8949
Nucb2 liver RNAseq expression ([2]; Figure 7c): 0.4814
Pdilt liver RNAseq expression ([2]; Figure 7c): 0.5899
Pkmyt1 liver RNAseq expression ([2]; Figure 7c): 0.09691
Prom1 liver RNAseq expression ([2]; Figure 7c): -0.03152
Serpina1e liver RNAseq expression ([2]; Figure 7c): 3.324
Slc37a2 liver RNAseq expression ([2]; Figure 7c): -0.4559
Soat1 liver RNAseq expression ([2]; Figure 7c): -0.1079
Sorl1 liver RNAseq expression ([2]; Figure 7c): -0.8539
Srd5a2 liver RNAseq expression ([2]; Figure 7c): -0.09691
Trim59 liver RNAseq expression ([2]; Figure 7c): -0.4949
Zdhhc2 liver RNAseq expression ([2]; Figure 7c): -0.3468
Adamts5 liver RNAseq expression ([2]; Figure 5d): -0.4318
Adamtsl1 liver RNAseq expression ([2]; Figure 5d): -0.9208
Anxa2 liver RNAseq expression ([2]; Figure 5d): 1.107
Ckap4 liver RNAseq expression ([2]; Figure 5d): -0.05061
Col1a1 liver RNAseq expression ([2]; Figure 5d): 0.8745
Col1a2 liver RNAseq expression ([2]; Figure 5d): 0.934
Col3a1 liver RNAseq expression ([2]; Figure 5d): 1.043
Col6a3 liver RNAseq expression ([2]; Figure 5d): 0.1367
Lgals3 liver RNAseq expression ([2]; Figure 5d): 0.941
Lpl liver RNAseq expression ([2]; Figure 5d): 1.015
Ltbp2 liver RNAseq expression ([2]; Figure 5d): -0.2757
Mmp12 liver RNAseq expression ([2]; Figure 5d): -0.1805
Nid1 liver RNAseq expression ([2]; Figure 5d): 0.5877
Nid2 liver RNAseq expression ([2]; Figure 5d): 0.03342
Npnt liver RNAseq expression ([2]; Figure 5d): -1.222
Serpine2 liver RNAseq expression ([2]; Figure 5d): 0.143
Slpi liver RNAseq expression ([2]; Figure 5d): 0.6998
Tubb4b liver RNAseq expression ([2]; Figure 5d): 1.687
